From ChEMBL document CHEMBL1201862, “PubChem BioAssay data set” (2004)
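A five-concentration, 48-hour dose response in 96-well plates underlies each endpoint, interpolated linearly between surrounding concentrations. GI50 marks 50% less growth.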 Activity calls are given as the source filed them. Rule as the data show it: active = GI50 up to about 1.1 µM and inactive = higher. Where a SMILES comes first, the peptide text is derived from it. [ ]: non-standard residue; d: D form. The star is where a group is joined. Phe(4-NO2) = N[CH](Cc1ccc([N+](=O)[O-])cc1)C(=O)O; Cbz = O=C(OCc1ccccc1)*

Legend:
Assay in all cases: growth of human tumour cells (NCI), 48 h
SNB-19 = test system: SNB-19
SF-295 = test system: SF-295
KM12 = test system: KM12
OVCAR-5 = test system: OVCAR-5
BT-549 = test system: BT-549
COLO 205 = test system: COLO 205
TK-10 = test system: TK-10
IGROV-1 = test system: IGROV-1
HCT-15 = test system: HCT-15
PC-3 = test system: PC-3
OVCAR-3 = test system: OVCAR-3
T47D = test system: T47D
SR = test system: SR
SK-MEL-2 = test system: SK-MEL-2
M14 = test system: M14
NCI-H522 = test system: NCI-H522
UACC-62 = test system: UACC-62
MDA-N = test system: MDA-N
K562 = test system: K562

| SMILES | GI50 (SNB-19) | GI50 (SF-295) | GI50 (KM12) | GI50 (OVCAR-5) | GI50 (BT-549) | GI50 (COLO 205) | GI50 (TK-10) | GI50 (IGROV-1) | GI50 (HCT-15) | GI50 (PC-3) | GI50 (OVCAR-3) | GI50 (T47D) | GI50 (SR) | GI50 (SK-MEL-2) | GI50 (M14) | GI50 (NCI-H522) | GI50 (UACC-62) | GI50 (MDA-N) | GI50 (K562) |
| --- | --- | --- | --- | --- | --- | --- | --- | --- | --- | --- | --- | --- | --- | --- | --- | --- | --- | --- | --- |
| COc1cc(C(=O)O)c([N+](=O)[O-])c(OC)c1OC | > 100 µM (inactive) | > 100 µM (inactive) | > 100 µM (inactive) | 63.2 µM (inactive) | > 100 µM (inactive) | > 100 µM (inactive) | > 100 µM (inactive) | > 100 µM (inactive) | > 100 µM | > 100 µM (inactive) | > 100 µM (inactive) | > 100 µM (inactive) | > 100 µM (inactive) | > 100 µM (inactive) | > 100 µM (inactive) | > 100 µM (inactive) | > 100 µM (inactive) | > 100 µM (inactive) | – |
| c1ccc2c(c1)Oc1cccc3cccc-2c13 | > 100 µM (inactive) | > 100 µM (inactive) | > 100 µM (inactive) | > 100 µM (inactive) | > 100 µM (inactive) | > 100 µM (inactive) | > 100 µM (inactive) | > 100 µM (inactive) | 98.4 µM | > 100 µM (inactive) | 42.3 µM (inactive) | > 100 µM (inactive) | – | > 100 µM (inactive) | > 100 µM (inactive) | > 100 µM (inactive) | > 100 µM (inactive) | > 100 µM (inactive) | > 100 µM (inactive) |
| CCC(=O)N/S(=N/S(=O)(=O)c1ccccc1)C(Cl)(Cl)Cl (stereo not drawn) | > 100 µM (inactive) | > 100 µM (inactive) | > 100 µM (inactive) | > 100 µM (inactive) | > 100 µM (inactive) | > 100 µM (inactive) | > 100 µM (inactive) | > 100 µM (inactive) | > 100 µM | > 100 µM (inactive) | > 100 µM (inactive) | > 100 µM (inactive) | > 100 µM (inactive) | > 100 µM (inactive) | > 100 µM (inactive) | – | > 100 µM (inactive) | > 100 µM (inactive) | > 100 µM (inactive) |
| CN(C)c1ccc(/C=C(\C#N)c2nc(-c3cc4ccccc4oc3=O)cs2)cc1 | 13.2 µM (inactive) | 10.6 µM (inactive) | > 50 µM (inactive) | > 50 µM (inactive) | 1.73 µM (inactive) | > 50 µM (inactive) | 8.95 µM (inactive) | 15.4 µM (inactive) | > 50 µM | > 50 µM (inactive) | – | > 50 µM (inactive) | > 50 µM (inactive) | 12 µM (inactive) | 15.7 µM (inactive) | 6.75 µM (inactive) | 8.61 µM (inactive) | > 50 µM (inactive) | > 50 µM (inactive) |
| Oc1cccc2cc(Cl)cnc12 | > 32.4 µM (inactive) | 3.39 µM (inactive) | 14.8 µM (inactive) | 28 µM (inactive) | 22.6 µM (inactive) | 31.4 µM (inactive) | 39.5 µM (inactive) | 7.16 µM (inactive) | 3.82 µM | 10.6 µM (inactive) | 2.99 µM (inactive) | 4.42 µM (inactive) | – | 40.8 µM (inactive) | 9.06 µM (inactive) | 2.75 µM (inactive) | 5.51 µM (inactive) | 31.9 µM (inactive) | 3.87 µM (inactive) |
| CC1=NN(C(=O)CC(=O)N(C(=O)c2ccccc2)c2ccc(Cl)cc2)C(=O)C1/N=N/c1ccc([N+](=O)[O-])cc1 (stereo not drawn) | > 10 µM (inactive) | > 10 µM (inactive) | > 10 µM (inactive) | > 10 µM (inactive) | > 10 µM (inactive) | > 10 µM (inactive) | > 10 µM (inactive) | > 10 µM (inactive) | > 10 µM | > 10 µM (inactive) | > 10 µM (inactive) | > 10 µM (inactive) | – | > 10 µM (inactive) | – | > 10 µM (inactive) | > 10 µM (inactive) | > 10 µM (inactive) | > 10 µM (inactive) |
| CC(C)(C)NCC(O)c1ccc(O)c(CO)n1 (stereo not drawn) | > 100 µM (inactive) | > 100 µM (inactive) | > 100 µM (inactive) | > 100 µM (inactive) | > 100 µM (inactive) | > 100 µM (inactive) | > 100 µM (inactive) | > 100 µM (inactive) | > 100 µM | > 100 µM (inactive) | > 100 µM (inactive) | > 100 µM (inactive) | > 100 µM (inactive) | > 100 µM (inactive) | > 100 µM (inactive) | > 100 µM (inactive) | > 100 µM (inactive) | > 100 µM (inactive) | – |
| COc1cc(/C=N/n2c(C)n[nH]c2=O)cc(OC)c1OC | > 100 µM (inactive) | > 100 µM (inactive) | 60.1 µM (inactive) | 80.5 µM (inactive) | 78 µM (inactive) | > 100 µM (inactive) | – | – | > 100 µM | > 100 µM (inactive) | 51.4 µM (inactive) | 71.3 µM (inactive) | – | > 100 µM (inactive) | > 100 µM (inactive) | – | 63.1 µM (inactive) | > 100 µM (inactive) | > 100 µM (inactive) |
| COc1ccc(-c2c3c(n(C4OC(CO)C(O)C(O)C4O)c(=S)c2C#N)CCC3)cc1 (stereo not drawn) | 37.7 µM (inactive) | 31.9 µM (inactive) | 59.3 µM (inactive) | 74.6 µM (inactive) | 51.2 µM (inactive) | 68.9 µM (inactive) | > 100 µM (inactive) | 48.6 µM (inactive) | 85.7 µM | 41.3 µM (inactive) | 25.7 µM (inactive) | 44.9 µM (inactive) | 38.4 µM (inactive) | 58.5 µM (inactive) | 36.2 µM (inactive) | – | 42 µM (inactive) | 53.8 µM (inactive) | 41.9 µM (inactive) |
| O=C1CC(CC(OCc2ccccc2)C(COCc2ccccc2)OCc2ccccc2)CC(=O)N1 (stereo not drawn) | – | 34.9 µM (inactive) | 37.9 µM (inactive) | 44.2 µM (inactive) | 13 µM (inactive) | 19.2 µM (inactive) | – | 70.5 µM (inactive) | 31.9 µM | 24.7 µM (inactive) | 37.4 µM (inactive) | 27.9 µM (inactive) | 34.3 µM (inactive) | – | 39.4 µM (inactive) | 23.7 µM (inactive) | – | 30.1 µM (inactive) | 33.7 µM (inactive) |
| O=c1n(N=[S+]([O-])(c2ccccc2)c2ccccc2)c(=O)n2n1C1C=CC2CC1 | > 100 µM (inactive) | > 100 µM (inactive) | > 100 µM (inactive) | > 100 µM (inactive) | > 100 µM (inactive) | > 100 µM (inactive) | > 100 µM (inactive) | > 100 µM (inactive) | > 100 µM | > 100 µM (inactive) | > 100 µM (inactive) | > 100 µM (inactive) | > 100 µM (inactive) | > 100 µM (inactive) | > 100 µM (inactive) | – | > 100 µM (inactive) | > 100 µM (inactive) | > 100 µM (inactive) |
| COc1cc(Cc2cc3c(c(C(=O)O)c2Br)OCO3)cc(OC)c1OC | > 100 µM (inactive) | > 100 µM (inactive) | 39.9 µM (inactive) | > 100 µM (inactive) | 47.1 µM (inactive) | > 100 µM (inactive) | > 100 µM (inactive) | > 100 µM (inactive) | 41.6 µM | > 100 µM (inactive) | > 100 µM (inactive) | > 100 µM (inactive) | 52.6 µM (inactive) | > 100 µM (inactive) | 70.8 µM (inactive) | – | 33.5 µM (inactive) | 23.8 µM (inactive) | 40.9 µM (inactive) |
| NC(=O)Cc1nc2c(O)ncnc2n1C1OC(CO)C(O)C1O (stereo not drawn) | > 100 µM (inactive) | > 100 µM (inactive) | > 100 µM (inactive) | > 100 µM (inactive) | > 100 µM (inactive) | > 100 µM (inactive) | > 100 µM (inactive) | > 100 µM (inactive) | > 100 µM | > 100 µM (inactive) | > 100 µM (inactive) | > 100 µM (inactive) | – | > 100 µM (inactive) | > 100 µM (inactive) | > 100 µM (inactive) | > 100 µM (inactive) | > 100 µM (inactive) | > 100 µM (inactive) |
| O=CN1CCN(C(=O)c2ccc(Cl)cc2Cl)C1=S | > 100 µM (inactive) | > 100 µM (inactive) | 43.2 µM (inactive) | > 100 µM (inactive) | > 100 µM (inactive) | > 100 µM (inactive) | 78.7 µM (inactive) | > 100 µM (inactive) | 78.7 µM | > 100 µM (inactive) | 40.3 µM (inactive) | 32.4 µM (inactive) | – | > 100 µM (inactive) | > 100 µM (inactive) | 20.3 µM (inactive) | > 100 µM (inactive) | 64.6 µM (inactive) | 85.5 µM (inactive) |
| COC(C)(C)C(O)C(O)C[C@H](C)C1CC=C2C1(C)CCC1[C@@]3(C)CCC(OC(C)=O)C(C)(C)C3CC(OC3OC(COC(C)=O)C(O)C(O)C3O)[C@@]21C (stereo partly drawn) | 5.01 µM (inactive) | 3.03 µM (inactive) | 2.92 µM (inactive) | 2.88 µM (inactive) | > 10 µM (inactive) | 1.99 µM (inactive) | 4.53 µM (inactive) | 2.78 µM (inactive) | 3.85 µM | 3.48 µM (inactive) | 2.94 µM (inactive) | 5.13 µM (inactive) | – | – | 3.15 µM (inactive) | 2.78 µM (inactive) | 2.76 µM (inactive) | 3.01 µM (inactive) | 3.33 µM (inactive) |
| CCOC(=O)CCC(NC(=O)OCc1ccccc1)C(=O)NC(CCC(=O)OCC)C(=O)NC(Cc1ccc([N+](=O)[O-])cc1)C(=O)NC(CCC(=O)OCC)C(=O)NC(CCC(=O)OCC)C(=O)OCC (stereo not drawn) (Cbz-E(OEt)E(OEt)[Phe(4-NO2)]E(OEt)E(OEt)-OEt; configuration not given here) | > 100 µM (inactive) | > 100 µM (inactive) | > 100 µM (inactive) | > 100 µM (inactive) | > 100 µM (inactive) | > 100 µM (inactive) | > 100 µM (inactive) | > 100 µM (inactive) | > 100 µM | > 100 µM (inactive) | – | > 100 µM (inactive) | > 100 µM (inactive) | > 100 µM (inactive) | – | > 100 µM (inactive) | > 100 µM (inactive) | > 100 µM (inactive) | – |
